In US20140235685A1, “PHARMACEUTICAL COMPOSITIONS COMPRISING 4-BROMO-N-(IMIDAZOLIDIN-2-YLIDENE)-1H-BENZIMIDAZOL-5-AMINE FOR TREATING SKIN DISEASES” (Allergan, Inc., priority 2011, published 2014):

Test system: cutaneous blood flow in the microvasculature of the hind foot pad
Assay: Rat Blood Flow Assay (laser Doppler flowmetry, hind foot pad)
Assay type: in vivo
Procedure: α-adrenergic agonists that act on the sympathetic nervous system outflow can regulate cutaneous blood flow in response to temperature changes.
A laser Doppler microvascular perfusion monitor (Laser Doppler Flowmetry LDP technique), was used to monitor red blood cell perfusion in the microvasculature of the hind foot pad. The laser doppler flowmetry (LDP) is an OxyFlo Microvascular Perfusion Monitor, from Oxford Optronix LTd. UK.
Briefly, 15 μL of test articles were applied topically to one hind foot pad of anaesthetized CD rats and 15 μL of vehicle was applied to the other footpad. The hairless CD rats used are a spontaneous mutation model isolated from a Crl:CD(SD) colony in Charles River, in the late 1980s. Rederived in 1993 and subsequently transferred to Charles River, Raleigh, N.C. for barrier room production. […] Specific genetic analysis to identify the mutation has not been undertaken. Histopathology has determined the model is euthymic.
Thirty minutes following test article administration, dynamic blood flow changes were measured and recorded every 15 seconds for 4 minutes per temperature interval for 5 intervals (22° C.→37° C.→4° C.→37° C.→22° C.). Rats were placed on a 37° C. heat pad to increase their temperature and on an ice pad to decrease their temperature to 4° C. The level of blood flow in the two paws was compared. […] It has a significant difference.

Brc1c(N=C2NCCN2)ccc2[nH]cnc12 [4-bromo-N-(imidazolidin-2-ylidene)-1H-benzimidazol-5-amine]
effect on induced vessel dilation caused at 37° C. (topical application to the skin at a concentration of 0.5%, FIG. 1): inhibited the induced vessel dilation
overall blood flow inhibition (topical, 15 μL to one hind foot pad of anaesthetized hairless CD rats vs vehicle on other footpad, measured 30 min after application over 5 temperature intervals (22→37→4→37→22° C.), P=0.014): 17%
